We go through 11 compounds from ChEMBL document CHEMBL1201862, “PubChem BioAssay data set” (2004).

Among the test systems are 786-0; A498; BT-549; CCRF-CEM; COLO 205; HL-60; HOP-92; IGROV-1; K562; LOX IMVI; NCI-H226; SF-268; SF-295; SK-MEL-2; SK-MEL-5; SNB-75; SW-620; T47D; UACC-62; UO-31.
Common to all, as to assay: NCI-60 cell line screen, 48 h

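96-well plates; 48 h exposure; 5 concentrations. Endpoints by linear interpolation between flanking doses. Not reached: highest tested concentration assigned. GI50 marks 50% less growth.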 Activity calls are given as the source filed them. Cut-off read from the data, not from the text of the source: active = GI50 up to about 1.1 µM and inactive = higher.

Regarding `CCn1c2ccccc2c2nnc(NCCCO)nc21`, the GI50 in the test on 786-0, with A498, in the test on BT-549, in the test with CCRF-CEM, with COLO 205 and in the test with HL-60 was > 100 µM (inactive) each time. Also, the GI50 in the test with HOP-92, in the test on IGROV-1, with K562, in the test with LOX IMVI, in the test with NCI-H226 and with SF-268 was > 100 µM (inactive) in each case. The GI50 with SF-295 is > 100 µM (inactive); in the test on SK-MEL-2, > 100 µM (inactive); in the test on SK-MEL-5, 94.4 µM (inactive); with SNB-75, 44.1 µM (inactive); with SW-620, > 100 µM (inactive); in the test with T47D, 82 µM (inactive). The GI50 in the test on UACC-62 was > 100 µM (inactive).

For the compound `COc1cc(C2=N/C(=C/c3cccs3)C(=O)O2)cc(OC)c1OC`, the GI50 in the test with 786-0, in the test with A498, with BT-549, with CCRF-CEM, with COLO 205 and with HL-60 was > 100 µM (inactive) throughout. For the same compound, the GI50 in the test on HOP-92, with IGROV-1, in the test with K562, with LOX IMVI, with NCI-H226 and in the test on SF-268 was > 100 µM (inactive) in each case. Further, the GI50 in the test on SF-295, in the test on SK-MEL-2, in the test on SK-MEL-5, in the test with SNB-75, with SW-620 and in the test on T47D was > 100 µM (inactive) each time. Also, in the test with UACC-62, the GI50 is > 100 µM (inactive).

As to `COc1cc(C2S/C(=C/c3ccccc3)C(=O)N2c2ccc(Cl)c(Cl)c2)cc(OC)c1OC` (stereo not drawn), the GI50 in the test on 786-0 was 70.6 µM (inactive); with A498 it was > 42.4 µM (inactive); in the test on BT-549 it was 42.3 µM (inactive); in the test with CCRF-CEM it was 1.36 µM (inactive); with COLO 205, 46.6 µM (inactive); with HL-60 it was 15.7 µM (inactive). Also, the GI50 in the test on HOP-92 is 32.9 µM (inactive); in the test with IGROV-1, 22.5 µM (inactive); in the test with K562, 15.2 µM (inactive); with LOX IMVI, 19.2 µM (inactive); in the test on NCI-H226 it was 29.4 µM (inactive); in the test on SF-268 it was 11.7 µM (inactive). Further, the GI50 in the test with SF-295 was 15.8 µM (inactive); in the test with SK-MEL-2 it was 12.6 µM (inactive); with SK-MEL-5, 30.1 µM (inactive); in the test with SW-620 it was 31 µM (inactive); in the test on T47D it was > 100 µM (inactive); in the test with UACC-62, 0.78 µM (active). For the same compound, the GI50 in the test with UO-31 is 33.3 µM (inactive).

For the compound `O=C(CNc1ccc(Cl)cc1Cl)Nn1c(-c2ccccc2)nc2ccccc2c1=O`, the GI50 in the test on 786-0 was 16.8 µM (inactive); in the test with A498, > 10 µM (inactive); with BT-549, 16.3 µM (inactive); in the test with CCRF-CEM it was 2.9 µM (inactive); in the test on COLO 205, 11.1 µM (inactive); in the test on HL-60 it was 20 µM (inactive). Also, the GI50 in the test on HOP-92 is 4.33 µM (inactive); in the test with IGROV-1, 15.2 µM (inactive); in the test on K562 it was 10.2 µM (inactive); with LOX IMVI it was 9.95 µM (inactive); in the test with NCI-H226, 33.8 µM (inactive); with SF-268, 3.86 µM (inactive). Moreover, the GI50 in the test on SF-295 is 14.9 µM (inactive); in the test on SK-MEL-5, 5.94 µM (inactive); in the test on SNB-75, 15.3 µM (inactive); with SW-620, 16.2 µM (inactive); in the test on T47D, 14.6 µM (inactive); in the test on UACC-62, 3.34 µM (inactive). Moreover, the GI50 in the test on UO-31 was 22.4 µM (inactive).

In the case of `c1cc(-c2csc(-c3ccsc3)c2)cs1`, the GI50 in the test with 786-0, in the test on A498, in the test with BT-549, with CCRF-CEM, with COLO 205 and in the test on HL-60 was > 100 µM (inactive) each time. The GI50 with HOP-92 was > 100 µM (inactive); in the test on IGROV-1, > 100 µM (inactive); with K562 it was > 100 µM (inactive); in the test on LOX IMVI, > 100 µM (inactive); with NCI-H226, 13.5 µM (inactive); with SF-268, > 100 µM (inactive). For the same compound, the GI50 with SF-295, in the test on SK-MEL-5, in the test with SNB-75, in the test on SW-620, in the test with T47D and with UACC-62 was > 100 µM (inactive) in each case. Also, in the test on UO-31, the GI50 is > 100 µM (inactive).

For `CC/C=C\C=C/C(=O)N/C=C/CCC`, the GI50 in the test on 786-0 is > 100 µM (inactive); in the test with A498, 23.5 µM (inactive); in the test with BT-549 it was > 100 µM (inactive); in the test with CCRF-CEM, 4.27 µM (inactive); in the test with HL-60, > 100 µM (inactive); with HOP-92, 27.7 µM (inactive). Also, the GI50 in the test with IGROV-1, in the test on K562, in the test with LOX IMVI, in the test on NCI-H226, in the test with SF-268 and in the test on SK-MEL-2 was > 100 µM (inactive) throughout. In addition, the GI50 with SNB-75 is > 100 µM (inactive); in the test with SW-620, > 100 µM (inactive); with T47D, 62.8 µM (inactive); with UACC-62, 47.2 µM (inactive); in the test with UO-31 it was > 100 µM (inactive).

As for `O=C1C(Sc2ccc3ccccc3c2)=C(Sc2ccc3ccccc3c2)C(=O)c2ccccc21`, the GI50 in the test with 786-0 was 12.7 µM (inactive); in the test with A498, 14.8 µM (inactive); with BT-549, 12 µM (inactive); with COLO 205 it was 3.95 µM (inactive); in the test with HL-60, 1.1 µM (active); in the test with HOP-92 it was 6.64 µM (inactive). Also, the GI50 in the test with K562 is 3.47 µM (inactive); with LOX IMVI, 11.4 µM (inactive); in the test on NCI-H226, 13.9 µM (inactive); in the test with SF-268, 11 µM (inactive); with SK-MEL-2 it was 5.53 µM (inactive); in the test with SK-MEL-5, 2.81 µM (inactive). For the same compound, the GI50 was 14 µM (inactive) in the test with SNB-75; 4.8 µM (inactive) in the test with SW-620; 1.76 µM (inactive) with T47D; 3.24 µM (inactive) in the test on UACC-62; 3.95 µM (inactive) with UO-31.

As to `COCCN(CCNC(=O)c1cccc2c(N)c3cccc(C)c3nc12)CCOC`, the GI50 was 0.562 µM (active) with 786-0; 2.78 µM (inactive) in the test with A498; 5.7 µM (inactive) in the test on BT-549; 1.14 µM (inactive) with CCRF-CEM; 0.436 µM (active) in the test on COLO 205; 0.794 µM (active) in the test with HL-60. Besides, the GI50 in the test on HOP-92 was 6.5 µM (inactive); in the test on IGROV-1, 0.571 µM (active); in the test with K562, 0.449 µM (active); in the test on LOX IMVI, 1.04 µM (active); in the test with NCI-H226, 1.03 µM (active); in the test with SF-268, 0.35 µM (active). For the same compound, the GI50 was 2.77 µM (inactive) with SF-295; 5.36 µM (inactive) in the test with SK-MEL-2; 0.951 µM (active) in the test on SK-MEL-5; 1.17 µM (inactive) with SNB-75; 0.491 µM (active) in the test with SW-620; 4.65 µM (inactive) with T47D. In the test with UACC-62, the GI50 is 2.94 µM (inactive).

With `COc1cc2c(cc1OC)C(=O)N(c1ccc(O)cc1)C2=O`, the GI50 with 786-0, in the test on A498, in the test on BT-549, in the test on CCRF-CEM, with COLO 205 and in the test on HL-60 was > 100 µM (inactive) throughout. Besides, the GI50 with HOP-92, with IGROV-1, with K562, in the test with LOX IMVI, in the test on NCI-H226 and with SF-268 was > 100 µM (inactive) in each case. Further, the GI50 with SF-295, in the test with SK-MEL-2, in the test with SK-MEL-5, in the test on SW-620, in the test with T47D and in the test with UACC-62 was > 100 µM (inactive) throughout.

As to `O=c1oc2c([N+](=O)[O-])cc([N+](=O)[O-])cc2c2ccccc12`, the GI50 with 786-0 was > 100 µM (inactive); with A498, > 100 µM (inactive); with BT-549, 59.6 µM (inactive); with CCRF-CEM, > 100 µM (inactive); in the test on COLO 205, > 100 µM (inactive); in the test on HL-60 it was > 100 µM (inactive). In addition, the GI50 in the test on HOP-92, in the test on IGROV-1, in the test on K562, in the test on LOX IMVI, with NCI-H226 and in the test with SF-268 was > 100 µM (inactive) throughout. The GI50 with SF-295, in the test with SK-MEL-2, in the test with SK-MEL-5, in the test on SNB-75, in the test with SW-620 and in the test on T47D was > 100 µM (inactive) throughout. Moreover, in the test with UACC-62, the GI50 was > 100 µM (inactive).

With `COc1cc2c(c(OC)c1O)-c1ccc(OC)c(=O)cc1[C@@H](NC(=O)C(F)(F)F)CC2`, the GI50 in the test with 786-0 was 0.327 µM (active); in the test with A498, 0.327 µM (active); in the test on BT-549, 1.98 µM (inactive); with CCRF-CEM, 0.0519 µM (active); in the test on COLO 205 it was 0.0352 µM (active); in the test on HL-60 it was 0.0217 µM (active). The GI50 in the test with HOP-92 was 0.111 µM (active); in the test with IGROV-1, 0.229 µM (active); in the test on LOX IMVI it was 0.163 µM (active); in the test with NCI-H226, 0.391 µM (active); in the test with SF-268, 0.173 µM (active); with SF-295, 0.392 µM (active). Besides, the GI50 with SK-MEL-2 was 0.0282 µM (active); in the test with SK-MEL-5, 0.0242 µM (active); in the test with SW-620, 0.0376 µM (active); with T47D, > 100 µM (inactive); in the test with UACC-62 it was 0.0387 µM (active); in the test with UO-31, 6.87 µM (inactive).
